Where a name gives a salt, the structure may show the parent alone.

The conditions of series [1]: cited from earlier work; for oral bioavailability of acyclovir: oral administration.
The nature of series [2]: Drug loading into ion exchange resin, evaluated spectrophotometrically. In kind it is physicochemical. The following applies: for % w/w unbound drug: resin not named. The method, then: Mediums of different pH were examined in order to achieve the maximum drug loading into the resin. For this reason, the pH of solutions was adjusted at 3, 4, 5, 6, and 7. The drug loaded was evaluated spectrophotometrically. […] Buffer pH=7 enhanced more the effect of drug loading.
The next step was to examine the effect of drug loading into the resin for buffer pH=7 of different ion strength. For this reason, buffer pH=7 of normality 0.1N, 0.2N, 1N were prepared and the drug loaded was evaluated spectrophotometrically as before. Buffer pH=7 0.2N was the most suitable medium as the higher drug loading was reached. (61.60%±2.05%).
At this point of studies, the research focused on the type of IER. For this reason, resins of different functional group were examined to reach the higher drug loading. […] As a result, Purolite C100CaMR and Indion 204 were the most preferred resins that could form hydrogen bonds with the cationic center of Valaciclovir and prevent the release in saliva.

For series [3] the following is noted: cited from earlier work.

In the case of `CC(C)[C@H](N)C(=O)OCCOCn1cnc2c(=O)[nH]c(N)nc21` [Valaciclovir, L-valyl acyclovir], in series [1], the “oral bioavailability of acyclovir” value is recorded as “high bioavailability of acyclovir”.

With `CC(C)[C@H](N)C(=O)OCCOCn1cnc2c(=O)[nH]c(N)nc21` [Valaciclovir hydrochloride, L-valine, 2-[(2-amino-1,6-dihydro-6-oxo-9H-purin-9-yl)methoxy] ethyl ester, mono hydrochloride], the drug loading in series [2] (Buffer pH=7 0.2N) is 61.60%±2.05%. In addition, the “% w/w unbound drug” value in series [2] (medium pH 3) is 79.85%±2.19%; in series [2] (medium pH 4), 75.24%±2.91%; in series [2] (medium pH 5) it was 66.69%±2.76%; in series [2] (medium pH 6), 61.19%±2.61%; in series [2] (medium pH 7), 30.91%±2.53%; in series [2] (water), 72.61%±2.81%. Moreover, the “solubility in dichloromethane” value in series [3] (dichloromethane) was “insoluble”. Further, the “solubility in water” value in series [3] (water) is given as “soluble”. For the same compound, in series [1] (after oral administration), the “absorption from the gastrointestinal tract” value is recorded as “rapidly absorbed”. In series [1] (first-pass intestinal and/or hepatic metabolism), the “conversion to acyclovir and L-valine” value is on record as “nearly completely converted”.

As for `Nc1nc2c(ncn2COCCO)c(=O)[nH]1` [acyclovir], in series [1] (in vivo), the “water solubility” value is recorded as “poorly water soluble”. For the same compound, the “oral bioavailability of acyclovir” value in series [1] was “poor oral bioavailability”.

The record behind these values is patent publication US20170202844A1, “PEDIATRIC CHEWABLE TABLET CONTAINING ANTIVIRAL AGENT AND METHOD FOR THE PREPARATION THEREOF” (PHARMATHEN S.A., priority 2014, published 2017).
